We go through four molecules from patent publication US10822318B2, “Lactone-based probes and methods of use thereof” (REGENTS OF THE UNIVERSITY OF MINNESOTA, priority 2017, dated 2020).

Experiment [1] deals with S. pyogenes. Conditions: mice infected with S. pyogenes; cited from earlier work.
Experiment [2] has as its system E. coli. Conditions: cited from earlier work.
The test system of experiment [3] is S. pneumoniae IU1945 PBPs. As to the kind of experiment: Competition assays with Boc-FL for S. pneumoniae IU1945 PBPs. Conditions: S. pneumoniae IU1945 cells. It is filed as cell-based. As to the method:
The protocol for SDS-PAGE gel preparation was previously described (Kocaoglu, O, et al. (2013) Curr Protoc Chem Biol 5, 239). Briefly, polyacrylamide gels were composed of 10% resolving gel (10.5 ml of 1.5 M Tris-HCl buffer pH 8.8, 10.5 ml of acrylamide:bis-acrylamide 29:1 (40% solution), 21 ml of H2O, 140 μl of 10% APS, 15 μl of tetramethylethylenediamine (TEMED)) and 4.5% stacking gel (2.5 ml of 0.5 M Tris-HCl buffer pH 6.8, 1.125 ml of acrylamide:bis-acrylamide 29:1 (40% solution), 6.375 ml of H2O, 30 μl of 10% APS, 10 μl of TEMED). Running parameters were 180 V, 400 mA, and 60 W for 1.5 h. Experiments to examine competition of acyl homoserine lactones or p-toluenesulfonic acid salts of the β-lactones with Boc-FL were performed with acrylamide:bis-acrylamide ratio of 37.5:1.
Cells from 1.5 ml of culture were harvested by centrifugation (16,100×g for 2 min at RT) and washed with 1 ml of PBS, pH 7.4. Cell pellets were resuspended in 50 μl of PBS containing 5, 10, and 20 μg/ml of β-lactone p-toluenesulfonic salts and incubated for 40 min at RT. Cells were pelleted and washed in 1 ml of PBS. Next, the cells were resuspended in 50 μl of PBS containing 5 μg/ml Boc-FL and incubated for 10 min at RT. Finally, the cells were resuspended in 100 μl PBS containing 1 or 10 mg/ml lysozyme and incubated for 30 min at 37° C. […]

Experiment [4] relates to S. pneumoniae cells. Put plainly: 3D-SIM imaging of lactone probe labeled cells. The experiment is classed as cell-based. Conditions: wild-type and Δpbp1b strains, ≈41 cells examined. Here is the method:
Cells from an overnight culture were diluted to OD620 0.02 in 2 ml of fresh BHI prewarmed to 37° C. and incubated at 37° C. in an atmosphere of 5% CO2. At OD620 0.2, 1.5 ml of culture was added to a microfuge tube and centrifuged at room temperature for 5 min at 16000×g. The supernatant was discarded, the pellet was resuspended in 1 ml room temperature PBS, and the culture was centrifuged a second time. The supernatant was discarded and the pellet was resuspended in either 50 μl of PBS with 5 μg mL^−1 7FL or 100 μl PBS with 5 μg mL^−1 8T. The cells were incubated for 20 min at room temperature in the dark. After incubation the cells were spun and washed with 1 ml of PBS (7FL) or 1 ml of PBS containing 50 mM glucose (8T). The cells were spun a second time and washed with 200 μl of PBS (7FL) or 200 μl of PBS with 50 mM glucose (8T), and finally spun a third time and resuspended in 100 μl of cold (4° C.) GTE buffer (50 mM glucose, 20 mM Tris pH 7.5, 1 mM EDTA). The cells were spun down at 4° C., the supernatant was discarded, and the pellet was resuspended in 15 μl of Vectashield Hardest Antifade (Vector Labs) and kept on ice. 1.2 μl of cells in antifade was pipetted onto a clean coverslip, applied to a slide, and imaged via 3D-SIM. 3D-SIM was performed using the OMX 3D-SIM super-resolution system located in the Indiana University Bloomington Light Microscopy Imaging Center (www.indiana.edu/˜lmic/microscopes/index.html#OMX). The system used is equipped with four Photometrics Cascade II EMCCD cameras that allow simultaneous imaging of up to four colors, and is controlled by DV-OMX software, with image processing by Applied Precision softWoRx 6.0.0 software. Exposure times and % T settings for DAPI, Alexa 488, and Alexa 568 images were 5 ms and 100% for all three channels.
For pre-treatment with methicillin followed by lactone probe labeling, duplicate 2 ml cultures of each strain were created and incubated as described above. At OD620 0.12, methicillin was added to a final concentration of 0.1 μg mL^−1 to one culture for each strain, and the strains were placed back in the incubator. After 20 min, all cultures were harvested, labeled, and imaged as described above.
For labeling of cells with both lactone probes, the following changes were made: After a 20 min incubation with 7FL, the cells were spun down and washed once in 1 ml of PBS. The cells were spun again and resuspended in 100 μl of 8T in PBS at 5 μg mL^−1. The cells were incubated for 20 min at room temperature in the dark, and then washed and imaged as described above for 8T labeling.

The target in experiment [5] is T1, PBP2x (Streptococcus pneumoniae, UniProt P59676).
T1 construct: endogenous in cells; host or cells: S. pneumoniae IU1945 and E193 (Δpbp1b)
As to the kind of experiment: Methicillin pre-treatment controls, gel-based analysis. Conditions: 7FL labeling. The experiment is classed as cell-based, S. pneumoniae. As to the method:
Cells from 1.5 ml of S. pneumoniae IU1945 and E193 cultures at exponential phase (OD620˜0.2) were harvested by centrifugation (16,100×g for 2 min at RT) and washed with 1 ml of PBS, pH 7.4. Cell pellets were resuspended in 50 μl of PBS containing 0.1 μg/ml of methicillin and incubated for 30 min at RT. Cells were pelleted and washed in 1 ml of PBS. Next, the cells were resuspended in 50 μl of PBS containing 1 or 5 μg/ml of lac-L-Phe-FL or 5 μg/ml Boc-FL (as control) and incubated for 20 min at RT (10 min at RT for Boc-FL). Finally, the cells were resuspended in 100 μl PBS containing 1 or 10 mg/ml lysozyme and incubated for 30 min at 37° C. Cells were lysed and sample preparation for SDS-PAGE gel-based analysis was performed as described.

Experiment [6] has as its system PBP1b. Conditions: cited from earlier work.
The test system of experiment [7] is PBP3. Conditions: cited from earlier work.

T1 sequence (P59676 whole entry): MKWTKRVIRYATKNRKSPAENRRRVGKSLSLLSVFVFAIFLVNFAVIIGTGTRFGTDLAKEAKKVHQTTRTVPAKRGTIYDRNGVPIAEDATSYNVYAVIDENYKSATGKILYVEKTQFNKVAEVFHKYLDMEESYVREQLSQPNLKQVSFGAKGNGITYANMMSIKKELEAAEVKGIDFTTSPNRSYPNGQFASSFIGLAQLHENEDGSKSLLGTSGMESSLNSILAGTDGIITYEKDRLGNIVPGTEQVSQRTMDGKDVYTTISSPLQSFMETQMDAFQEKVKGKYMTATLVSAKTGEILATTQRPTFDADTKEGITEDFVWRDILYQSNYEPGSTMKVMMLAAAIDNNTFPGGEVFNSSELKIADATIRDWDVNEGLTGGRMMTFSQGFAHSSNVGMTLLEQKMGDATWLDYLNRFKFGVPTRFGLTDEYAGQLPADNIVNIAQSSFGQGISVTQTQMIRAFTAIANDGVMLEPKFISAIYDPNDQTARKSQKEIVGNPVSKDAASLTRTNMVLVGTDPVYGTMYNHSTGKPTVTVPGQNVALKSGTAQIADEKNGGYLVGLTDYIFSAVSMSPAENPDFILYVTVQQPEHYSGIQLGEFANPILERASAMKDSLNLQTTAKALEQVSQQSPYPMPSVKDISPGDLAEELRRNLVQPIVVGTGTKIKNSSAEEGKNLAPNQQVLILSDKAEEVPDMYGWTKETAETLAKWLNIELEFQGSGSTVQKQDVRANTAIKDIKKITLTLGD

As for `O=C(N[C@@H]1C(=O)O[C@@H]1Cc1ccc([N+](=O)[O-])cc1)c1cccc(O)c1O` [Obafluorin, obafluorin], in experiment [1], the “protection of infected mice” value is on record as “provides protection”. For the same molecule, the “effect on cell morphology” value in experiment [2] is given as “causes cell elongation”.
In the case of `CC(=O)N[C@@H]1C(=O)O[C@@H]1C` [SQ 26,517], in experiment [3], the “PBP inhibition (competition with Boc-FL)” value is “very weak inhibitor of PBP2a”.
Consider `COc1cccc(OC)c1C(=O)N[C@@H]1C(=O)N2[C@@H]1SC(C)(C)[C@@H]2C(=O)O` [methicillin, reference compound], for which the “methicillin-treated late division cells displaying empty septal rings” value in experiment [4] (labeled with 7FL) is greater than 98%. Further, the “methicillin-treated late divisional cells showing empty septal rings” value in experiment [4] (labeled with 8T) is recorded as greater than 98%. Also, in experiment [5], the “PBP2x labeling following methicillin treatment” value is given as “dramatically decreased”.
As to [^3H]benzylpenicillin, the deacylation rate was 5.6e-05 s⁻¹ in experiment [6] and 5.7e-05 s⁻¹ in experiment [7].
